System: BLM-induced lung fibrosis in C57BL/6J mice
Assay: Late BLM model, comparison and combination with Pirfenidone
Assay type: in vivo, mouse
Settings: RP-832c 10 mg/kg QD; Pirfenidone 30 mg/kg Q3D; monotherapy, 21 days; n = 6
Procedure: C57BL/6J mice were obtained from Envigo, Indianapolis, IN, USA. All animal studies were approved by the IACUC (Murigenics, Inc., Vallejo, CA, USA). After 3 days of acclimation, the mice were challenged with a single 2.5 U/kg body weight dose of bleomycin (BLM) intratracheally (IT), and a vehicle (normal saline) or RP-832c(QD) was administered subcutaneously for 21 days starting 3- and 14-days post-BLM-challenge. Body weights were measured daily, and lung weight was measured at the end of each study.
At the end of the study, the mice were sacrificed using CO2 followed by cervical dislocation (according to IACUC guidelines), and the lungs were collected and fixed in 10% formalin. After 48 h of fixation, the lungs were processed into tissue sections. […] All slides were scanned using a Leica Aperio SC2 scanner and blindly evaluated by two independent pathologists. A total of 10 representative fields of 20× IHC images per tissue section were individually analyzed for the total number of cells/area using a confocal microscope (Olympus, New York, NY, USA). All quantitative data were normalized to appropriate control images.
Pirfenidone and Nintedanib are the only two FDA-approved drugs for lung fibrosis; therefore, we tested any synergistic effects of RP-832c peptide with these drugs. […] Combination therapy was also evaluated (Figure 5A and Figure S5). […]

## Cc1ccc(=O)n(-c2ccccc2)c1 [Pirfenidone]
  CD206 expression in lung (IHC): decreased CD206 expression

From PMC10177262, “A Novel CD206 Targeting Peptide Inhibits Bleomycin-Induced Pulmonary Fibrosis in Mice” (Cells, 2023)
